Measured values as given in patent US9004743B2, “Mixing device for creating an output mixture by mixing a first material and a second material” (Revalesio Corporation, priority 2006, dated 2015).
Like-named read-outs stand apart in the source and are kept apart here.

Key:
[1] = tested on: Tilapia; conditions: cited from earlier work
[2] = tested on: glutathione peroxidase; test: Glutathione peroxidase study; type: biochemical; conditions: A340 nm, 25 degrees Celsius
Protocol: The inventive oxygen-enriched output fluid material was tested for the presence of hydrogen peroxide by testing the reactivity with glutathione peroxidase using a standard assay (Sigma). Briefly, glutathione peroxidase enzyme cocktail was constituted in deionized water and the appropriate buffers. Water samples were tested by adding the enzymatic reagents. Continuous spectrophotometric rate determination was made at A340 nm, and room temperature (25 degrees Celsius).

O=O [dissolved oxygen, oxygen]
final increase in weight of the fish ([1]; high dissolved oxygen levels (approximately 7.0 ppm)): 19 grams | final increase in weight of the fish ([1]; low DO levels (less than 2 ppm)): 1.5 g | reduction in growth rates ([1]; low DO versus high DO): 92% | final increase in weight of the fish ([1]; mid-level DO (approximately 3.5 ppm)): 5 grams | reduction in growth rates ([1]; mid-level DO versus high DO): 74%

OO [hydrogen peroxide]
reactivity with glutathione peroxidase [2]: strong reactivity
